Experimental data: US20190038714A1, “ANTI-INFLAMMATORY COMPOSITION COMPRISING CLAVASPIRIN PEPTIDE ANALOGUE AS EFFECTIVE INGREDIENT” (INDUSTRY-ACADEMIC COOPERATION FOUNDATION, CHOSUN UNIVERSITY, priority 2015, published 2019)
≈ marks a conversion by molar mass, not a printed value. Read-outs that look alike come from different tables or passages of the source.

Experiments:
[1] = system: S. aureus; experiment: microbe, parasite or virus in culture; settings: Staphylococcus aureus, 24 h
[2] = system: S. aureus MRSA 3126; experiment: microbe, parasite or virus in culture; settings: Staphylococcus aureus, 24 h
[3] = system: S. aureus MRSA 0027; experiment: microbe, parasite or virus in culture; settings: Staphylococcus aureus, 24 h
[4] = system: S. aureus MRSA 5157; experiment: microbe, parasite or virus in culture; settings: Staphylococcus aureus, 24 h
[5] = system: S. aureus MRSA 1635; experiment: microbe, parasite or virus in culture; settings: Staphylococcus aureus, 24 h
[6] = system: S. aureus MRSA 4761; experiment: microbe, parasite or virus in culture; settings: Staphylococcus aureus, 24 h
[7] = system: S. aureus MRSA 5159; experiment: microbe, parasite or virus in culture; settings: Staphylococcus aureus, 24 h
[8] = system: S. aureus MRSA 3-359; experiment: microbe, parasite or virus in culture; settings: Staphylococcus aureus, 24 h
[9] = system: S. aureus MRSA 2-122; experiment: microbe, parasite or virus in culture; settings: Staphylococcus aureus, 24 h
[10] = system: S. aureus MRSA 1630; experiment: microbe, parasite or virus in culture; settings: Staphylococcus aureus, 24 h
[11] = system: S. aureus MRSA 1870; experiment: microbe, parasite or virus in culture; settings: Staphylococcus aureus, 24 h
[12] = system: S. aureus MRSA 3511; experiment: microbe, parasite or virus in culture; settings: Staphylococcus aureus, 24 h
[13] = system: S. aureus MRSA 5156; experiment: microbe, parasite or virus in culture; settings: Staphylococcus aureus, 24 h
[14] = system: S. aureus MRSA 3518; experiment: microbe, parasite or virus in culture; settings: Staphylococcus aureus, 24 h
[15] = system: S. aureus MRSA 3126; settings: 24 hours at 37° C.
[16] = system: S. aureus MRSA 0027; settings: 24 hours at 37° C.
[17] = system: S. aureus MRSA 5157; settings: 24 hours at 37° C.
[18] = system: S. aureus MRSA 1635; settings: 24 hours at 37° C.
[19] = system: S. aureus MRSA 4761; settings: 24 hours at 37° C.
[20] = system: S. aureus MRSA 5159; settings: 24 hours at 37° C.
[21] = system: S. aureus MRSA 3-359; settings: 24 hours at 37° C.
[22] = system: S. aureus MRSA 2-122; settings: 24 hours at 37° C.
[23] = system: S. aureus MRSA 1630; settings: 24 hours at 37° C.
[24] = system: S. aureus MRSA 1870; settings: 24 hours at 37° C.
[25] = system: S. aureus MRSA 3511; settings: 24 hours at 37° C.
[26] = system: S. aureus MRSA 5156; settings: 24 hours at 37° C.
[27] = system: S. aureus MRSA 3518; settings: 24 hours at 37° C.
[28] = system: S. aureus; settings: 24 hours at 37° C.

Compound | MIC [15] [µM] | MIC [16] [µM] | MIC [17] [µM] | MIC [18] [µM] | MIC [19] [µM] | MIC [20] [µM] | MIC [21] [µM] | MIC [22] [µM] | MIC [23] [µM] | MIC [24] [µM] | MIC [25] [µM] | MIC [26] [µM] | MIC [27] [µM] | other results
CC[C@H]1OC(=O)[C@H](C)[C@@H](O[C@H]2C[C@@](C)(OC)[C@@H](O)[C@H](C)O2)[C@H](C)[C@@H](O[C@@H]2O[C@H](C)C[C@H](N(C)C)[C@H]2O)[C@](C)(O)C[C@@H](C)C(=O)[C@H](C)[C@@H](O)[C@]1(C)O [Erythromycin, erythromycin] | – | – | – | – | – | – | – | – | – | – | – | – | – | MIC [1]: 1 µM (≈ 0.734 µg/mL); MIC [2]: 128 µM (≈ 93.9 µg/mL); MIC [3]: > 256 µM; MIC [4]: 16 µM (≈ 11.7 µg/mL); MIC [5]: > 256 µM; MIC [6]: > 256 µM; MIC [7]: 16 µM (≈ 11.7 µg/mL); MIC [8]: > 256 µM; MIC [9]: > 256 µM; MIC [10]: > 256 µM; MIC [11]: > 256 µM; MIC [12]: > 256 µM; MIC [13]: > 256 µM; MIC [14]: > 256 µM
CC[C@H](C)[C@H](NC(=O)CN)C(=O)NCC(=O)N[C@@H](C)C(=O)N[C@H](C(=O)N[C@@H](CC(C)C)C(=O)N[C@@H](CCCCN)C(=O)N[C@H](C(=O)N[C@@H](CC(C)C)C(=O)N[C@H](C(=O)N[C@H](C(=O)NCC(=O)N[C@@H](CC(C)C)C(=O)N1CCC[C@H]1C(=O)N[C@@H](C)C(=O)N[C@@H](CC(C)C)C(=O)N[C@H](C(=O)N[C@@H](CO)C(=O)N[C@@H](Cc1c[nH]c2ccccc12)C(=O)N[C@H](C(=O)N[C@@H](CCCCN)C(=O)N[C@@H](CCCNC(=N)N)C(=O)N[C@@H](CCCCN)C(=O)N[C@@H](CCCNC(=N)N)C(=O)N[C@@H](CCC(N)=O)C(=O)N[C@@H](CCC(N)=O)C(N)=O)[C@@H](C)CC)[C@@H](C)CC)[C@@H](C)O)[C@@H](C)O)C(C)C)C(C)C [Melittin, melittin] | 2 (≈ 5.69 µg/mL) | 2 (≈ 5.69 µg/mL) | 2 (≈ 5.69 µg/mL) | 2 (≈ 5.69 µg/mL) | 4 (≈ 11.4 µg/mL) | 8 (≈ 22.8 µg/mL) | 4 (≈ 11.4 µg/mL) | 4 (≈ 11.4 µg/mL) | 4 (≈ 11.4 µg/mL) | 4 (≈ 11.4 µg/mL) | 4 (≈ 11.4 µg/mL) | 4 (≈ 11.4 µg/mL) | 4 (≈ 11.4 µg/mL) | –
gentamycin | 32 | 64 | 16 | >256 | 32 | 16 | 64 | 128 | 64 | 16 | >256 | >256 | >256 | MIC [28]: 1 µM
